This assay in a line: Compound was tested for the inhibitory activity against cobra venom PLA2 (Naja naja atra) by using the Dole assay.
Turning to `O=S(=O)(c1ccc(O)cc1)C(F)(F)F`, the Activity (nM min-1 mg-1) was determined as 11.9.

`[O-][S+](c1ccc(O)cc1)C(F)(F)F` (centres undefined) registered an Activity (nM min-1 mg-1) of 2.

The compound `CS(=O)(=O)c1ccc(O)cc1` returned an Activity (nM min-1 mg-1) of 11.1.

As for `O=[N+]([O-])c1ccc(O)cc1`, the Activity (nM min-1 mg-1) stood at 2.5.

Values taken from ChEMBL document CHEMBL1130920, “The structure-activity relationships of a series of suicide inhibitors of phospholipase A2” (Bioorg Med Chem Lett, 1998).
